Percent cleavage/time data for two compounds are collected here from patent US7763234B2, “Pharmaceutical compounds” (GE Healthcare AS, priority 2005, dated 2010).

Numbered stars: 1 amine (or outer) side, 2 acyl side, 3 side chain; on linkers, the order of the positions; unused ones are H or OH. Square brackets hold non-standard residues; d marks the D form. Peptide text beside a SMILES is read from it. ξ: configuration not given here. X1 = C/C(=N/O)C(C)(C)NCCC(CCNC(C)(C)/C(C)=N\O)CCN(CC(=O)[*:2])[*:1]; Ile(3ξ) = CCC(C)[C@H](N)C(=O)O

The test has as its target T1, ACE (Sigma A-6778) (Oryctolagus cuniculus, UniProt P12822).
T1 construct: purchased Sigma A-6778
T1 sequence (P12822 34-1310): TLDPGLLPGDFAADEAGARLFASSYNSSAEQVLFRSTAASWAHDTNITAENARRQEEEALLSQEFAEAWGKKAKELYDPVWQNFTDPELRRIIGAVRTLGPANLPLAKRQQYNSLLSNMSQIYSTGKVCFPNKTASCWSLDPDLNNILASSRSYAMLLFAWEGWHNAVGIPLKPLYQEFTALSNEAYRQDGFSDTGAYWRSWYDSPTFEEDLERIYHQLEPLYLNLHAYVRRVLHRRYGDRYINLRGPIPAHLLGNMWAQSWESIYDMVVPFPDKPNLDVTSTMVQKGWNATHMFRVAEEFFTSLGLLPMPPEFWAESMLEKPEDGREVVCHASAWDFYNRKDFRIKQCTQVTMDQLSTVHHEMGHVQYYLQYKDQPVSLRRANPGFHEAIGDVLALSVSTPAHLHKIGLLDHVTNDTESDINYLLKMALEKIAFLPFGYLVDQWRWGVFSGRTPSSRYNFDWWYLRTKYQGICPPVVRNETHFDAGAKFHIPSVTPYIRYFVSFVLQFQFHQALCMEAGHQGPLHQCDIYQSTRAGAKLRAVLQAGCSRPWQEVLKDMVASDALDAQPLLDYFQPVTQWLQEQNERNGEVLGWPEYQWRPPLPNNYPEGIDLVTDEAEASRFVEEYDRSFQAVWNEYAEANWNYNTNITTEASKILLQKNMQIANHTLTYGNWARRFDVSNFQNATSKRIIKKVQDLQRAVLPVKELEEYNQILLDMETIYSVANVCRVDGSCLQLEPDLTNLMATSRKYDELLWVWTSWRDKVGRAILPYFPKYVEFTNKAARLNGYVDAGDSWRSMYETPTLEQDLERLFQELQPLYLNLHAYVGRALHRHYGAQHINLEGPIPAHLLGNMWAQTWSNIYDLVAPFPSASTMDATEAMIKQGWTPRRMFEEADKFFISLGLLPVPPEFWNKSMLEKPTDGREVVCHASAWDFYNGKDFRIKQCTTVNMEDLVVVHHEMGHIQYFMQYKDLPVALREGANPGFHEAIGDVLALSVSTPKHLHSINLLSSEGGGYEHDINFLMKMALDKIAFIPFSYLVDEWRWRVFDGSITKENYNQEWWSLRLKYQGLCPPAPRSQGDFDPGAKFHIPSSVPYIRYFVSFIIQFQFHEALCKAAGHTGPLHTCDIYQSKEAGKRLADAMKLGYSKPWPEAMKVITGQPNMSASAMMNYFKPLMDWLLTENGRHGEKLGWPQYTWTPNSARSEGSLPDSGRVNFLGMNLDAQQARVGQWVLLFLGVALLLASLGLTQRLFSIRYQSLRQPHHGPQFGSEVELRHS
Briefly: ACE cleavage of Ang I peptide analogues (LC-MS). The class given is biochemical. The note with it: after 120 min; 0.1 mg peptide in 100 μL ACE stock solution (0.34 mg/mL, 200 mM HEPES pH 7.8), room temperature. How it is done:
ACE stock solution was prepared: 0.34 mg ACE (Sigma A-6778) was dissolved in 1 mL 200 mM HEPES adjusted to pH 7.8 using KOH.
0.1 mg of the Ang I peptide analogue was dissolved in 100 μL of the ACE stock solution and the solution incubated at room temperature. Samples (10 μL) were withdrawn from the solution, diluted with H2O/0.1% TFA (400 μL) and analysed by LC-MS.

Compound `CCC(C)[C@H](NC(=O)[C@H](Cc1ccc(O)cc1)NC(=O)[C@@H](NC(=O)[C@H](CCCNC(=N)N)NC(=O)CNCCC(CCNC(C)(C)/C(C)=N\O)CCNC(C)(C)/C(C)=N\O)C(C)C)C(=O)N[C@@H](Cc1cnc[nH]1)C(=O)N1CCC[C@H]1C(=O)N[C@@H](Cc1ccccc1)C(=O)N[C@@H](Cc1cnc[nH]1)C(=O)N[C@@H](CC(C)C)C(=O)O` (stereo partly drawn) [cPn216-Gly-Arg-Val-Tyr-Ile-His-Pro-Phe-His-Leu-OH] (H-[X1]RVY[Ile(3ξ)]HPFHL-OH) had a percent cleavage/time of 40%/120 min.
Compound “Ang I: the decapeptide Ang I, formed from angiotensinogen by renin and converted by ACE to the active Ang II” yielded a percent cleavage/time of 40%/120 min.
